From US10982337B2, “Corrosion inhibition” (SCHLUMBERGER TECHNOLOGY CORPORATION, priority 2015, dated 2021) come the findings set out here.

The nature of series [1]: Corrosion weight loss test on steel coupons in HCl.
Method: Experiments were carried out with coupons of the following steels: • 22Cr125 also designated 2205, a duplex alloy steel which is an iron-chromium-nickel-molybdenum alloy, used (among other things) to fabricate casing. • HS80™ (TradeMark of TENARIS), a low carbon steel used to fabricate coiled tubing. • N80, a medium carbon steel used to fabricate borehole casing. • 13Cr80, an alloy steel containing 13 wt % chromium without nickel, also used to fabricate borehole casing.
(1) Metal Type: Duplex Stainless Steel 22Cr125 Casing (2205 b6); 4 mol/L HCl, T=80° C., 3 Hours Exposure
Series [2] is described as follows: Corrosion weight loss test on steel coupons in HCl. Further details: Pitting Index: scale not given here. An excerpt:
(§1) Such “acceptable” levels of corrosion are application-specific.

The nature of series [3]: Corrosion weight loss test on steel coupons in HCl. Further details: Pitting Index: scale not given here.
Excerpt: as §1
This is another data set of the same source.

A short description of series [4]: Corrosion weight loss test on steel coupons in HCl. Further details: Pitting Index: scale not given here.
Excerpt: as §1
The source holds these as a separate data set.

Series [5] in a line: Solubility in hydrochloric acid solutions. Particulars: compared with NMTHQ. In kind it is physicochemical. From the text:
As a result, a surfactant is required to solubilise NTHQ for corrosion testing purposes. The surfactant used in this example is P2393, a polyoxyethylene tridecyl ether, C13H27(OCH2CH2)nOH, where n=10.
As a result, a surfactant is required to solubilise NTHQ for corrosion testing purposes. As for example 5 (NTHQ), the surfactant used to solubilise NCOTHQ is P2393, a polyoxyethylene tridecyl ether, C13H27(OCH2CH2)nOH, where n=10.

The mark [6] stands for this setting: 0.1542 wt % (5.13 mmol/L), KI 0, 2205 (b9), 5 mL 2-butoxyethanol in 200 mL 4 mol/L HCl.

Consider `c1ccc2ncccc2c1` [Quinoline, reference compound], for which the “Pitting Index” value in series [1] (0.1421 wt % (11.00 mmol/L), 2205 b6, 4 mol/L HCl, 80° C., 3 hours) is 6.

Consider `NCCc1cn(Cc2cccc3ccccc23)c2ccccc12` [NMHIE, 2-(1-(Naphthalene-1ylmethyl)-1H-indol-3-yl)ethan-1-amine], for which the “Pitting Index” value in series [1] (0.1500 wt % (4.99 mmol/L) + KI 20 mmol/L, 2205 (b9), 0.5 wt % P2393 in 4 mol/L HCl) came to 0; in series [1] (0.1542 wt % (5.13 mmol/L), KI 0, 2205 (b9), 0.5 wt % P2393 in 4 mol/L HCl) it was 5; in series [1] (setting [6]), 3.

`c1ccc2c(CN3CCOCC3)cccc2c1` [NMM, 4-(naphthalene-1-ylmethyl)morpholine]: the “Pitting Index” value turned out to be 2 in series [1] (0.1397 wt % (5.04 mmol/L) + KI 20.12 mmol/L, 2205 (b9)) and 5 in series [1] (0.1402 wt % (5.05 mmol/L), KI 0, 2205 (b9)).

Turning to `c1ccc2c(CNCCc3c[nH]c4ccccc34)cccc2c1` [HINNME, 2-(1H-indol-3-yl)-N-(naphthalene-1-ylmethyl)ethan-1-amine], the “Pitting Index” value in series [1] (0.1500 wt % (4.99 mmol/L) + KI 20 mmol/L, 2205 (b9), 5 mL 2-butoxyethanol in 200 mL 4 mol/L HCl) was found to be 0; in series [1] (setting [6]), 2.

Turning to `c1ccc2c(CN3CCC[C@H]4CCCC[C@@H]43)cccc2c1` [4aR-8aS-NMDHQ], the “Pitting Index” value amounted to 1 in series [2] (0.3098 wt % (11.09 mmol/L), KI 0); 1 in series [1] (0.3095 wt % (11.08 mmol/L), KI 0, 2205 (b8)); 2 in series [3] (0.3076 wt % (11.01 mmol/L), KI 0, 13Cr); 2 in series [4] (0.3087 wt % (11.05 mmol/L), KI 0).

Take `c1ccc2c(c1)CCN(Cc1ccc3ccccc3c1)C2` [NMTHisoQ]: the “Pitting Index” value in series [1] (0.1366 wt % (5.00 mmol/L) + KI 20 mmol/L, 2205 (b5), 4 mol/L HCl, 80° C., 3 hours) was found to be 0; in series [1] (0.1367 wt % (5.00 mmol/L), KI 0, 2205 (b5), 4 mol/L HCl, 80° C., 3 hours) it was 1.

Consider `c1ccc2c(c1)CCCN2c1cccc2ccccc12` [NTHQ, 1-(naphthalen-1-yl)-1,2,3,4-tetrahydroquinoline], for which the “solubility in hydrochloric acid solutions (in words)” value in series [5] is “significantly less soluble than NMTHQ”. Moreover, the “Pitting Index” value in series [1] (11.00 mmol/L + additive P2393, 0.5 wt %, 2205 (b5)) was found to be 3; in series [4] (11.00 mmol/L + additive P2393, 0.5 wt %) it was 1.

`c1ccc2c(CN3CCCC4CCCCC43)cccc2c1` (stereo not shown) [NMDHQ, 1-(naphthalen-1-ylmethyl)decahydroquinoline]: the “Pitting Index” value in series [2] (0.3068 wt % (10.98 mmol/L), KI 0) turned out to be 0; in series [1] (0.1414 wt % (5.0 mmol/L) + KI 10 mmol/L, 2205 (b8)) it was 0; in series [1] (0.1414 wt % (5.0 mmol/L) + KI 20 mmol/L, 2205 (b8)), 0; in series [1] (0.3088 wt % (11.05 mmol/L), KI 0, 2205 (b8)), 1; in series [3] (0.3094 wt % (11.07 mmol/L), KI 0, 13Cr), 2; in series [4] (0.3061 wt % (10.95 mmol/L), KI 0), 2.

As to `[I-].[K+]` [KI, potassium iodide, reference compound], the “Pitting Index” value came out at 5 in series [2] (KI 10 mmol/L alone, no NMTHQ); 5 in series [1] (KI 10 mmol/L alone, no organic inhibitor, 2205 (b5)); 5 in series [1] (KI 20 mmol/L alone, no organic inhibitor, 2205 (b5), 4 mol/L HCl, 80° C., 3 hours); 5 in series [3] (KI 10 mmol/L alone, no NMTHQ); 2 in series [4] (KI 10 mmol/L alone, no NMTHQ).

Regarding `O=C(c1cccc2ccccc12)N1CCCc2ccccc21` [NCOTHQ, (3,4-dihydroquinolin-1(2H)-yl)(naphthalene-1-yl)methanone], the “solubility in hydrochloric acid solutions (in words)” value in series [5] is recorded as “significantly less soluble than NMTHQ”.

On to `c1ccc2c(c1)CCN2Cc1cccc2ccccc12` [NMI, 1-(naphthalen-1-ylmethyl)indoline], for which the “Pitting Index” value amounted to 3 in series [1] (0.1304 wt % (5.03 mmol/L), KI 0, 2205 (b9)) and 0 in series [1] (0.1308 wt % (5.04 mmol/L) + KI 20 mmol/L, 2205 (b9)).
